These results are taken from ChEMBL document CHEMBL4007471, “Assessment of new triplet forming artificial nucleobases as RNA ligands directed towards HCV IRES IIId loop” (Bioorg Med Chem Lett, 2017).

Each structure is given as a SMILES string. Bounds are passed on as bounds.

One may read the Kd as the constant that tells how readily two partners part at equilibrium.

Test [1] has as its target Internal ribosome entry site (IRES). Kind of test: Binding affinity to HCV 5'-Alexa488-labeled IRES domain 3 loop RNA at 20 degC after overnight incubation by fluorescence assay. The arrangement: species or system Hepacivirus hominis.
Test [2] has the same target. Kind of test: Binding affinity to HCV 5'-Alexa488-labeled IRES domain 3 loop RNA at 5 degC after overnight incubation by fluorescence assay. The arrangement: species or system Hepacivirus hominis.
Test [3] has the same target. Kind of test: Binding affinity to HCV 5'-Alexa488-labeled IRES domain 3 loop RNA at 10 degC after overnight incubation by fluorescence assay. The arrangement: species or system Hepacivirus hominis.
Test [4] has the same target. Put plainly: Binding affinity to HCV 5'-Alexa488-labeled IRES domain 3 loop RNA at 15 degC after overnight incubation by fluorescence assay. More on the design: species or system Hepacivirus hominis.
The subject of test [5] is Internal ribosome entry site (IRES). Put plainly: Binding affinity to HCV 5'-Alexa488-labeled IRES domain 3 loop RNA at 30 degC after overnight incubation by fluorescence assay. The arrangement: species or system Hepacivirus hominis.
Test [6] shares this test system. Kind of test: Binding affinity to HCV 5'-Alexa488-labeled IRES domain 3 loop RNA at 36 degC after overnight incubation by fluorescence assay. The arrangement: species or system Hepacivirus hominis.
The test system is the same in test [7]. Put plainly: Binding affinity to HCV 5'-Alexa488-labeled IRES domain 3 loop RNA assessed as gibbs free energy change after overnight incubation by fluorescence assay. The conditions noted are these: Hepacivirus hominis.
The test system is the same in test [8]. Put plainly: Binding affinity to HCV 5'-Alexa488-labeled IRES domain 3 loop RNA assessed as change in enthalpy after overnight incubation by fluorescence assay. The conditions noted are these: Hepacivirus hominis.
The test system is the same in test [9]. Kind of test: Binding affinity to HCV 5'-Alexa488-labeled IRES domain 3 loop RNA assessed as change in entropy after overnight incubation by fluorescence assay. The conditions noted are these: Hepacivirus hominis.
For test [10] the test system is unchanged. Put plainly: Binding affinity to HCV IRES 5'Alexa488-GCCGAGGAGUGUUGGGUCGCGCAAGGC-3' RNA at 20 degC after overnight incubation by fluorescence assay. More on the design: species or system Hepacivirus hominis.
In test [11] the target is Internal ribosome entry site (IRES). Kind of test: Binding affinity to HCV 5'-Alexa488-labeled IRES domain 3 loop RNA at 20 degC after overnight incubation in presence of 50-fold excess of tRNA by fluorescence assay. The arrangement: species or system Hepacivirus hominis.
For test [12], the system named is Internal ribosome entry site (IRES). Put plainly: Selectivity ratio of Kd for 5'-Alexa488-labeled IRES domain 3 loop RNA in presence of 50-fold excess of tRNA at 20 degC to Kd for HCV 5'-Alexa488-labeled IRES domain 3 loop RNA at 20 degC. The following applies: Hepacivirus hominis.
Test [13] has the same test system. Put plainly: Potency index, ratio of neomycin Kd to compound Kd for HCV 5'-Alexa488-labeled IRES domain 3 loop RNA at 20 degC. The following applies: Hepacivirus hominis.
Test [14] shares this test system. Put plainly: Selectivity ratio of Kd for HCV IRES 5'Alexa488-GCCGAGGAGUGUUGGGUCGCGCAAGGC-3' RNA at 20 degC to Kd for HCV 5'-Alexa488-labeled IRES domain 3 loop RNA at 20 degC. The following applies: Hepacivirus hominis.

For the compound `CC(=O)Nc1nccc(-c2cccc(NC(=O)c3nccnc3N)c2)n1`, the Kd in test [1] (read-out: Kd) is 232 µM; in [2] (read-out: Kd) it was 81.5 µM; in [3] (read-out: Kd) it was 138 µM; in [4] (read-out: Kd) it was 158 µM; in [5] it was “Not Active”; in test [6], “Not Active”.
Regarding `CC(=O)Nc1nccc(-c2cccc(NC(=O)[C@@H](N)Cc3c[nH]cn3)c2)n1`, the Kd in test [1] (read-out: Kd) was found to be 19.7 µM; in test [2] (read-out: Kd), 8.6 µM; in [3] (read-out: Kd), 11.8 µM; in test [4] (read-out: Kd), 15 µM; in test [5] (read-out: Kd) it was 50.8 µM; in test [6] (read-out: Kd), 262 µM. Moreover, in [7], the deltaG is -6.19 kcal/mol. Besides, the deltaH in test [8] was -11.6 kcal/mol. Also, the TdeltaS in test [9] is -5.4 kcal/mol.
Turning to `NCCCC(=O)NCC(=O)Nc1nc2ccccc2[nH]1`, the Kd result in test [1], in [2], in test [3], in test [4], in test [5] and in test [6] was “Not Active” throughout.
For the compound `NCCCC[C@H](N)C(=O)O` [LYSINE], the Kd entry in test [1] was “Not Active”.
Consider `CC(=O)Nc1nccc(-c2cccc(NC(=O)CCCCCNC(=O)[C@@H](N)CN)c2)n1`, for which the Kd in test [1] (read-out: Kd) came to 16.8 µM; in test [2] (read-out: Kd), 9.4 µM; in test [3] (read-out: Kd) it was 11.6 µM; in [4] (read-out: Kd), 14.2 µM; in [5] (read-out: Kd), 27.7 µM; in [6] (read-out: Kd), 42.6 µM. Further, in [7], the deltaG was -6.33 kcal/mol. Further, the deltaH in test [8] was -8.08 kcal/mol. Besides, the TdeltaS in test [9] was -1.74 kcal/mol.
With `NCC(=O)NCC(=O)Nc1nc2ccccc2[nH]1`, the Kd entry in test [1], in test [2], in [3], in test [4], in test [5] and in test [6] was “Not Active” each time.
As to `CC(=O)Nc1nccc(-c2cccc(NC(=O)CCCCCN)c2)n1`, the Kd in [1] (read-out: Kd) came out at 11.8 µM; in test [2] (read-out: Kd) it was 10.8 µM; in [3] (read-out: Kd) it was 11.1 µM; in test [4] (read-out: Kd), 11.4 µM; in test [5] (read-out: Kd) it was 12 µM; in test [6] (read-out: Kd), 11.4 µM. Further, the Kd entry in test [10] was “Not Active”; in test [11], 17.1 µM. The deltaG in test [7] was -6.62 kcal/mol. Besides, in [8], the deltaH was -0.741 kcal/mol. Besides, the TdeltaS in test [9] was 5.88 kcal/mol. Moreover, the Selectivity ratio in test [12] was 1.4.
Take `CC(=O)Nc1nccc(-c2cccc(NC(=O)[C@@H](N)CCCCN)c2)n1`: the Kd stood at 4.3 µM in [1] (read-out: Kd); 3.2 µM in test [2] (read-out: Kd); 3.4 µM in test [3] (read-out: Kd); 3.8 µM in [4] (read-out: Kd); 6.2 µM in test [5] (read-out: Kd); 8.6 µM in test [6] (read-out: Kd). Moreover, the Kd in test [10] (read-out: Kd) was found to be 554 µM; in [11], 10.5 µM. For the same compound, in [13], the Ratio was 2. Further, the deltaG in test [7] was -7.17 kcal/mol. The deltaH in test [8] is -6.14 kcal/mol. Moreover, the TdeltaS in [9] amounted to 1.03 kcal/mol. Also, the Selectivity ratio in test [14] was above 100; in test [12], 2.4.
Regarding `CC(=O)Nc1nccc(-c2cccc(NC(=O)CN)c2)n1`, the Kd in [1] (read-out: Kd) is 863 µM; in [2] (read-out: Kd), 177 µM; in [3] (read-out: Kd) it was 284 µM; in test [4] (read-out: Kd), 438 µM; in test [5], “Not Active”; in test [6] it was “Not Active”.
Take `CC(=O)Nc1nccc(-c2cccc(NC(=O)CCCN)c2)n1`: the dissociation constant Kd was 220 µM in test [1] (read-out: Kd); 102 µM in [2] (read-out: Kd); 122 µM in test [3] (read-out: Kd); 159 µM in [4] (read-out: Kd); “Not Active” in test [5]; “Not Active” in [6].
For `CC(=O)Nc1nccc(-c2cccc(NC(=O)CCCN(C)C)c2)n1`, the Kd came out at 36.9 µM in test [1] (read-out: Kd); 29.5 µM in test [2] (read-out: Kd); 31.5 µM in test [3] (read-out: Kd); 34.8 µM in test [4] (read-out: Kd); 38.4 µM in [5] (read-out: Kd); 32.5 µM in test [6] (read-out: Kd). The deltaG in test [7] is -6.02 kcal/mol. Also, the deltaH in test [8] was -1.91 kcal/mol. Also, the TdeltaS in test [9] was found to be 4.11 kcal/mol.
As to `NCC1O[C@H](O[C@H]2[C@@H](O)[C@H](O[C@H]3[C@H](O)[C@@H](N)C[C@@H](N)[C@@H]3O[C@H]3O[C@H](CN)[C@@H](O)[C@H](O)[C@H]3N)O[C@@H]2CO)[C@H](N)[C@@H](O)[C@@H]1O` (stereo partly specified), the Kd stood at 8.5 µM in test [1] (read-out: Kd); 5.7 µM in test [2] (read-out: Kd); 6.1 µM in test [3] (read-out: Kd); 6.5 µM in test [4] (read-out: Kd); 15.6 µM in test [5] (read-out: Kd); 24.1 µM in [6] (read-out: Kd). The deltaG in test [7] was -6.72 kcal/mol. Also, in [8], the deltaH was -9.51 kcal/mol. Also, in [9], the TdeltaS is -2.8 kcal/mol.
For the compound `NCCCCCC(=O)NCC(=O)Nc1nc2ccccc2[nH]1`, the Kd result in test [1], in [2], in [3], in test [4], in [5] and in [6] was “Not Active” in each case. Further, in test [10] (read-out: Kd), the Kd is 41.4 µM.
`CC(=O)Nc1nccc(-c2cccc(NC(=O)c3cccnc3)c2)n1`: the Kd in test [1] (read-out: Kd) is 659 µM; in test [2] (read-out: Kd), 137 µM; in [3] (read-out: Kd), 290 µM; in test [4] (read-out: Kd), 360 µM; in [5], “Not Active”; in test [6], “Not Active”.
On to `CC(=O)Nc1nccc(-c2cccc(N)c2)n1`, for which the Kd entry in test [1] is reported as “Not Active”.
For the compound `CC(=O)Nc1nccc(-c2cccc(NC(=O)[C@@H](N)CN)c2)n1`, the Kd in test [1] (read-out: Kd) was determined as 10.1 µM; in test [2] (read-out: Kd), 5.1 µM; in [3] (read-out: Kd) it was 6.5 µM; in [4] (read-out: Kd) it was 7.6 µM; in [5] (read-out: Kd), 18.4 µM; in [6] (read-out: Kd), 30.1 µM. Also, in test [7], the deltaG was -6.64 kcal/mol. Further, the deltaH in test [8] is -9.63 kcal/mol. Moreover, the TdeltaS in [9] is -2.99 kcal/mol.
